This note sets out measurements from US4027038A, “Complement inhibitors” (priority 1976, dated 1977).

Test [1] has as its target T1, activated human C1 (Homo sapiens, UniProt P09871).
T1 sequence (P09871 438-688 limits assumed): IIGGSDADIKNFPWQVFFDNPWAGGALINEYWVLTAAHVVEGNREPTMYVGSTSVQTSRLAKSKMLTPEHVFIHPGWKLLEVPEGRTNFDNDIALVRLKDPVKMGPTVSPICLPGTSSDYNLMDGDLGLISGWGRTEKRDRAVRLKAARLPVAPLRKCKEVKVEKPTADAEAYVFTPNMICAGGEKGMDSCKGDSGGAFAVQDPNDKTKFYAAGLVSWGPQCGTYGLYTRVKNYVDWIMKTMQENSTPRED
T1 sequence (P09871 16-437 limits assumed): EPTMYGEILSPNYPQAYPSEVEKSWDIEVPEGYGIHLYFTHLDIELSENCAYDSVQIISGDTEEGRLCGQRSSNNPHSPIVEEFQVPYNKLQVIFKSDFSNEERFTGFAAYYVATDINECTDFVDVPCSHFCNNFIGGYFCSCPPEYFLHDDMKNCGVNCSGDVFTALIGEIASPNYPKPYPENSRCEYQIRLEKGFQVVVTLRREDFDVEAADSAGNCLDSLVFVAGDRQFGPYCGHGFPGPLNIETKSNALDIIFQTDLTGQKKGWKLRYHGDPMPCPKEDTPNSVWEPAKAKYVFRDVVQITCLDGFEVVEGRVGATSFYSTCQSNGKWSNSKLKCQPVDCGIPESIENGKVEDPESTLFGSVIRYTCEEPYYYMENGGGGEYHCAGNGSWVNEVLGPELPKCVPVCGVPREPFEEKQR
The test can be described thus: Test, Code 026 (C1 inhibitor). In kind it is biochemical. The conditions noted are these: In Vitro; serial two-fold dilution assay, higher well number indicates higher activity. An excerpt: (§1) This test measures the ability of activated human C1 to destroy fluid phase human C2 in the presence of C4 and appropriate dilutions of the test compound. An active inhibitor protects C2 from C1 and C4; (ii) Test, Code 035 (C3-C9 inhibitor). This test determines the ability of the late components of human complement (C3-C9 to lyse EAC 142 in the presence of appropriate dilutions of the test compound. An active inhibitor protects EAC 142 from lysis by human C3-C9; (ii) Test, Code 036 (C-Shunt inhibitor)-- In this test human erythrocytes rendered fragile are lysed in autologous serum via the shunt pathway activated by cobra venom factor in the presence of appropriate dilutions of the test compound. Inhibition of the shunt pathway results in failure of lysis; (iv) Forssman Vasculitis Test-- Here, the well known complement dependent lesion, Forssman vasculitis, is produced in guinea pigs by intradermal injection of rabbit anti-Forssman antiserum. The lesion is measured in terms of diameter, edema and hemorrhage and the extent to which a combined index of these is inhibited by prior intraperitoneal injection of the test compound at 200 mg/kg is then reported, unless otherwise stated; (v) Forssman Shock Test-- Lethal shock is produced in guinea pigs by an i.v. injection of anti-Forssman antiserum and the harmonic mean death time of treated guinea pigs is compared with that of simultaneous controls; (vi) Complement Level Reduction Test-- In this test, the above dosed guinea pigs, or other, are bled for serum and the complement level is determined in undiluted serum by the capillary tube method of U.S. Pat. No. 3,876,376 and compared to undosed control guinea pigs; and (vii) Cap 50 Test-- Here, appropriate amounts of the test compound are added to a pool of guinea pig serum in vitro, after which the undiluted serum capillary tube assay referred to above is run. The concentration of compound inhibiting 50% is reported.

Test [2] relates to late components of human complement (C3-C9). Nature of the test: Test, Code 035 (C3-C9 inhibitor), lysis of EAC 142. In kind it is biochemical. The following applies: In Vitro; serial two-fold dilution assay, higher well number indicates higher activity.
From the text: as §1

The test system of test [3] is shunt pathway. Nature of the test: Test, Code 036 (C-Shunt inhibitor), lysis of fragile human erythrocytes in autologous serum, cobra venom factor. In kind it is biochemical. The conditions noted are these: In Vitro; serial two-fold dilution assay, higher well number indicates higher activity.
From the text: as §1

In test [4] the test system is Forssman vasculitis. The test can be described thus: Forssman Vasculitis Test. The following applies: In Vivo; guinea pigs; inhibition of combined index of lesion diameter, edema and hemorrhage; prior intraperitoneal injection at 200 mg/kg.
From the text: as §1

The subject of test [5] is complement level in undiluted serum. The test can be described thus: Complement Level Reduction Test. The following applies: In Vivo; serum of dosed guinea pigs compared to undosed controls, capillary tube method.
From the text: as §1

Regarding `O=C(Nc1ccc(C(=O)Nc2ccc(S(=O)(=O)[O-])c3cccc(S(=O)(=O)[O-])c23)cc1)Nc1ccc(C(=O)Nc2ccc(S(=O)(=O)[O-])c3cccc(S(=O)(=O)[O-])c23)cc1.[Na+].[Na+].[Na+].[Na+]` [4,4'-[Ureylenebis(p-phenylenecarbonylimino)]di-1,5-naphthalenedisulfonic acid tetrasodium salt], the “026 (C1 inhibitor), activity in wells” value in test [1] was “NEG”. Moreover, the “035 (C3-C9 inhibitor), activity in wells” value in test [2] is “NEG”. Moreover, the “036 (C-Shunt inhibitor), activity in wells” value (“036 (C-Shunt inhibitor)” below) in test [3] is given as “NEG”. Besides, the Forssman in test [4] stood at 12. Further, the “% Reduction Complement” value in test [5] is “+58%”.

In the case of `O=C(Nc1cccc(C(=O)Nc2ccc(S(=O)(=O)[O-])c3cccc(S(=O)(=O)[O-])c23)c1)Nc1cccc(C(=O)Nc2ccc(S(=O)(=O)[O-])c3cccc(S(=O)(=O)[O-])c23)c1.[Na+].[Na+].[Na+].[Na+]` [4,4'-[Ureylenebis(m-phenylenecarbonylimino)]di-1,5-naphthalenedisulfonic acid tetrasodium salt], the “026 (C1 inhibitor), activity in wells” value in test [1] was 2 wells. For the same molecule, in test [2], the “035 (C3-C9 inhibitor), activity in wells” value was “NEG”. The “036 (C-Shunt inhibitor)” value in test [3] is given as “NEG”. Further, the Forssman in test [4] is 10. In addition, in test [5], the “% Reduction Complement” value is listed as -18%.

For `O=C(Nc1cccc(C(=O)Nc2ccc3c(S(=O)(=O)[O-])cccc3c2S(=O)(=O)[O-])c1)Nc1cccc(C(=O)Nc2ccc3c(S(=O)(=O)[O-])cccc3c2S(=O)(=O)[O-])c1.[Na+].[Na+].[Na+].[Na+]` [2,2'-[Ureylenebis(m-phenylenecarbonylimino)]di-1,5-naphthalenedisulfonic acid tetrasodium salt], the “026 (C1 inhibitor), activity in wells” value in test [1] is given as “NEG”. In test [2], the “035 (C3-C9 inhibitor), activity in wells” value came to 1 wells. Besides, the “036 (C-Shunt inhibitor)” value in test [3] is recorded as 1 wells. Moreover, the Forssman in test [4] worked out at 10. The “% Reduction Complement” value in test [5] was -18%.

Turning to `O=C(Nc1cccc(C(=O)Nc2ccc3cc(S(=O)(=O)[O-])cc(S(=O)(=O)[O-])c3c2)c1)Nc1cccc(C(=O)Nc2ccc3cc(S(=O)(=O)[O-])cc(S(=O)(=O)[O-])c3c2)c1.[Na+].[Na+].[Na+].[Na+]` [7,7'-[Ureylenebis(m-phenylenecarbonylimino)]di-1,3-naphthalenedisulfonic acid tetrasodium salt], the “026 (C1 inhibitor), activity in wells” value in test [1] stood at 3 wells. The “035 (C3-C9 inhibitor), activity in wells” value in test [2] came to 1 wells. The “036 (C-Shunt inhibitor)” value in test [3] is reported as 1 wells. Further, the Forssman in test [4] is given as 8. Also, the “% Reduction Complement” value in test [5] is reported as -33%.

Turning to `O=C(Nc1cccc(C(=O)Nc2cc(S(=O)(=O)[O-])cc3cc(S(=O)(=O)[O-])ccc23)c1)Nc1cccc(C(=O)Nc2cc(S(=O)(=O)[O-])cc3cc(S(=O)(=O)[O-])ccc23)c1.[Na+].[Na+].[Na+].[Na+]` [4,4'-[Ureylenebis(m-phenylenecarbonylimino)]di-2,7-naphthalenedisulfonic acid tetrasodium salt], the “026 (C1 inhibitor), activity in wells” value in test [1] worked out at 3 wells. In test [2], the “035 (C3-C9 inhibitor), activity in wells” value was “NEG”. For the same molecule, the “036 (C-Shunt inhibitor)” value in test [3] is “NEG”. For the same molecule, the Forssman in test [4] was 0. The “% Reduction Complement” value in test [5] was “+4%”.
